Assay results taken from patent US5639783A, “Ketone derivatives” (Mitsubishi Chemical Corporation, priority 1991, dated 1997).
Where two headings read alike, the source gives them in different places.

Key:
Assay type in all cases: biochemical
m-calpain = molecular target: T1, m-calpain (Rattus norvegicus, UniProt Q07009); test: Thiol protease inhibitory activity, m-calpain purified from rat brain; conditions: Table 3
T1 construct: m-calpain was purified from rat brain; from tissue; host or cells: rat brain
T1 sequence (Q07009 20-700 limits assumed): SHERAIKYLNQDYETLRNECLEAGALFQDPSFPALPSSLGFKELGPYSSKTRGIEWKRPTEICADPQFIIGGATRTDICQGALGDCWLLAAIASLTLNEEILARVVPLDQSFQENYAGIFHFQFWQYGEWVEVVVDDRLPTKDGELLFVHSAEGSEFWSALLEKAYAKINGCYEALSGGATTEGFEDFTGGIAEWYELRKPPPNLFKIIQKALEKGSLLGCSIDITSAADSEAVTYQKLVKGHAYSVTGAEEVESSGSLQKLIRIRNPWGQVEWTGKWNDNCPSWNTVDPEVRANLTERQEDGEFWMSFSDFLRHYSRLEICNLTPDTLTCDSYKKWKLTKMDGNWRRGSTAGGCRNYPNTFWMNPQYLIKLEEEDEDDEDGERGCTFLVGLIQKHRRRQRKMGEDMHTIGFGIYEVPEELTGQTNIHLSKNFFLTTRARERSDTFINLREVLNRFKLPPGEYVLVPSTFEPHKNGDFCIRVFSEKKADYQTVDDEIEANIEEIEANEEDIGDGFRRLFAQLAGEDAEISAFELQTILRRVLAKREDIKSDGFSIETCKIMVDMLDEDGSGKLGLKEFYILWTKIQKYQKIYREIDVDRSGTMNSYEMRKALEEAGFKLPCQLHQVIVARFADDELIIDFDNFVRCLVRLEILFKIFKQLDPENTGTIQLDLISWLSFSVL
T1 sequence (Q64537 1-270 partner): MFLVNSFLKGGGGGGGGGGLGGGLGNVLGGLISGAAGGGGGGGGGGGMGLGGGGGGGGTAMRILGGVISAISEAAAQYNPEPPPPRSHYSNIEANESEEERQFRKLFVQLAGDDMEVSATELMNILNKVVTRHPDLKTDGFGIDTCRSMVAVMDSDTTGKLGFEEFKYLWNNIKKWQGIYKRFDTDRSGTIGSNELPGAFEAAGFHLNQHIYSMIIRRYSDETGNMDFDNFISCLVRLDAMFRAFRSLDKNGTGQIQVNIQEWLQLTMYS
Procedure: (§1) Inhibitory activity against papain (P-3125, Sigma) and cathepsin B (C-6286, Sigma) was assayed according to the method described in a literature [Biochemical Journal, 201, 189 (1982)]. Cathepsin L was purified from rat kidney according to the method in a literature [Journal of Biochemistry, 100, 35 (1986)], and the inhibitory activity against it was assayed in the same manner as described in the above literature for cathepsin B. Furthermore, m-calpain was purified from rat brain according to a known method [Journal of Biological Chemistry, 254, p. 3210 (1984)] and the inhibitory activity against it was assayed by a method described in a literature [Journal of Biological Chemistry, 259, 12489 (1984)]. It is evident from Tables 3 and 4 that the compounds of the present invention have a potent inhibitory activity against thiol proteases such as papain, cathepsin B, cathepsin L or m-calpain.

papain = molecular target: T2, papain (Carica papaya, UniProt P00784); test: Thiol protease inhibitory activity, papain (P-3125, Sigma)
T2 sequence (P00784 134-345): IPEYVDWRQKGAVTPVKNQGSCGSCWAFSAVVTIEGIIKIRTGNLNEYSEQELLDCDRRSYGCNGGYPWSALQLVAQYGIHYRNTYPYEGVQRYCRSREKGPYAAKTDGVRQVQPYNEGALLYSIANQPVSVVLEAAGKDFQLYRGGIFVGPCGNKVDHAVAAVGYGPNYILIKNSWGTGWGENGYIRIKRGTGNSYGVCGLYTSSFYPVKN
Procedure: as §1

cathepsin B = molecular target: T3, cathepsin B (Bos taurus, UniProt P07688); test: Thiol protease inhibitory activity, cathepsin B (C-6286, Sigma); conditions: Table 3
T3 construct: purchased Sigma C-6286
Procedure: as §1

cathepsin L = molecular target: T4, cathepsin L (Rattus norvegicus, UniProt P07154); test: Thiol protease inhibitory activity, cathepsin L purified from rat kidney; conditions: Table 3
T4 construct: Cathepsin L was purified from rat kidney; from tissue; host or cells: rat kidney
Procedure: as §1

T4 sequence (P07154 114-334): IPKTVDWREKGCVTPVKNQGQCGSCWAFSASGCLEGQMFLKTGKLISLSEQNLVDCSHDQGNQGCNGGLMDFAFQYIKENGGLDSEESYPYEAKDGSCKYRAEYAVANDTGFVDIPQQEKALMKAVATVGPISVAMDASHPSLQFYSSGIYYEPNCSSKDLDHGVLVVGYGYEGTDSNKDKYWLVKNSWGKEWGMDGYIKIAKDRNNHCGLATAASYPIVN

SMILES	IC50 (m-calpain) [µM]	IC50 (papain; Table 3, read-out: IC50 papain) [µM]	IC50 (cathepsin B) [µM]	IC50 (cathepsin L) [µM]	IC50 (papain) [µM]
CSCC(=O)[C@H](CCc1ccccc1)NC(=O)[C@H](CC(C)C)NC(=O)OCc1ccccc1 [202 (No. 534), (s)-3-((s)-2-benzyloxycarbonylamino-4-methylvalerylamino)-1-methylthio-5-phenyl-2-pentanone]	13	> 100	0.25	0.39	
CCCC[C@H](NC(=O)[C@H](CC(C)C)NC(=O)COc1ccc(Cl)cc1C)C(=O)CSCc1ccco1 [46 (No. 100), (s)-3-[(s)-2-(4-chloro-2-methylphenoxyacetylamino)-4-methylvalerylamino]-1-furfurylthio-2-heptanone]	16	0.39	0.4	0.1	
CC(C)C[C@H](NC(=O)C(C)Oc1ccccc1)C(=O)N[C@@H](Cc1ccccc1)C(=O)CSCc1ccco1 (stereo partly drawn) [165 (No. 349), (s)-1-furfurylthio-3-[(s)-4-methyl-2-(2-phenoxypropionylamino)valerylamino]-4-phenyl-2-butanone]	13	9.2	7	1.9	
CCCC[C@H](NC(=O)[C@H](CC(C)C)NC(=O)COc1ccccc1)C(=O)C[S+]([O-])Cc1ccco1 (stereo partly drawn) [4 (No. 83), (s)-1-furfurylsulfinyl-3-((s)-4-methyl-2-phenoxyacetylaminovalerylamino)-2-heptanone]	12		0.044	0.045	0.21
CC(C)C[C@H](NC(=O)COc1cccc2ccccc12)C(=O)N[C@@H](Cc1ccccc1)C(=O)CSCc1ccco1 [170 (No. 364), (s)-1-furfurylthio-3-[(s)-4-methyl-2-(1-naphtoxyacetylamino)valerylamino]-4-phenyl-2-butanone]	19	9.2	6.5	8.6	
CC(C)C[C@H](NC(=O)COc1ccccc1)C(=O)N[C@@H](CC1CCCCC1)C(=O)CSCc1ccco1 [110 (No. 240), (s)-4-cyclohexyl-1-furfurylthio-3-((s)-4-methyl-2-phenoxyacetylaminovalerylamino)-2-butanone]	6		3.3	0.98	21
CC(C)C[C@H](NC(=O)COc1ccccc1)C(=O)N[C@@H](CCc1ccccc1)C(=O)CSCc1ccco1 [206 (No. 543), (s)-1-furfurylthio-3-((s)-4-methyl-2-phenoxyacetylaminovalerylamino)-5-phenyl-2-pentanone]	15		0.82	0.62	6
CCCC[C@H](NC(=O)[C@H](CC(C)C)NC(=O)OCc1ccccc1)C(=O)CSCc1ccco1 [22 (No. 48), (s)-3-((s)-2-benzyloxycarbonylamino-4-methylvalerylamino)-1-furfurylthio-2-heptanone]	11	1.1	0.98	1.3	
CCCC[C@H](NC(=O)[C@H](CC(C)C)NC(=O)OCc1ccccn1)C(=O)CSCc1ccco1 [28 (No. 59), (s)-1-furfurylthio-3-[(s)-4-methyl-2-(2-pyridylmethoxycarbonylamino)valerylamino]-2-heptanone]	11	3.4	2.1	15	
CC(C)C[C@H](NC(=O)COc1ccccc1Cl)C(=O)N[C@@H](Cc1ccccc1)C(=O)CSCc1ccco1 [167 (No. 354), (s)-3-[(s)-2-(2-chlorophenoxyacetylamino)-4-methylvalerylamino]-1-furfurylthio-4-phenyl-2-butanone]	20	> 100	30	1.4	
CCCC[C@H](NC(=O)[C@H](CC(C)C)NC(=O)Cc1cccc2ccccc12)C(=O)CSCc1ccco1 [33 (No. 76), (s)-1-furfurylthio-3-[(s)-4-methyl-2-(1-naphtylacetylamino)valerylamino]-2-heptanone]	6.4	0.7	1.2	0.27	
CCCC[C@H](NC(=O)[C@H](CC(C)C)NC(=O)COc1ccccc1F)C(=O)CSCc1ccco1 [36 (No. 85), (s)-3-[(s)-2-(2-fluorophenoxyacetylamino)-4-methylvalerylamino]-1-furfurylthio-2-heptanone]	25	26	4.9	1.3	
CCCC[C@H](NC(=O)[C@H](CC(C)C)NC(=O)COc1ccccc1C)C(=O)CSCc1ccco1 [44 (No. 96), (s)-1-furfurylthio-3-[(s)-4-methyl-2-(2-methylphenoxyacetylamino)valerylamino]-2-heptanone]	22	0.88	0.17	0.06	
CC(C)C[C@H](NC(=O)c1cc2ccccc2o1)C(=O)N[C@@H](Cc1ccccc1)C(=O)CSCc1ccco1 [174 (No. 382), (s)-3-[(s)-2-(2-benzofuranylcarbonylamino)-4-methylvalerylamino]-1-furfurylthio-4-phenyl-2-butanone]	16	12	23	1.6	
CCCC[C@H](NC(=O)[C@H](CC(C)C)NC(=O)CSc1ccccc1)C(=O)CSCc1ccco1 [49 (No. 107), (s)-1-furfurylthio-3-((s)-4-methyl-2-phenylthioacetylaminovalerylamino)-2-heptanone]	11		0.59	0.67	0.04
CC(C)C[C@H](NC(=O)OCc1ccccc1)C(=O)N[C@@H](CC1CCCCC1)C(=O)CSCc1ccco1 [109 (No. 238), (s)-3-((s)-2-benzyloxycarbonylamino-4-methylvalerylamino)-4-cyclohexyl-1-furfurylthio-2-butanone]	13	4.2	1.1	1.2	
CCCC[C@H](NC(=O)[C@H](CC(C)C)NC(=O)COc1ccc2ccccc2c1)C(=O)CSCc1ccco1 [53 (No. 115), (s)-1-furfurylthio-3-[(s)-4-methyl-2-(2-naphtoxyacetylamino)valerylamino]-2-heptanone]	6.2	9.2	11	1.5	
CCCC[C@H](NC(=O)[C@H](CC(C)C)NC(=O)c1ccc2ccccc2c1)C(=O)CSCc1ccco1 [82 (No. 162), (s)-1-furfurylthio-3-[(s)-4-methyl-2-(2-naphtoylamino)valerylamino]-2-heptanone]	20	34	2.7	0.32	
CC(C)C[C@H](NC(=O)OCc1ccccn1)C(=O)N[C@@H](Cc1ccccc1)C(=O)CSCc1ccco1 [150 (No. 313), (s)-1-furfurylthio-3-[(s)-4-methyl-2-(2-pyridylmethoxycarbonylamino)valerylamino]-4-phenyl-2-butanone]	5.4	91	1.1	0.27	
CCCC[C@H](NC(=O)[C@H](CC(C)C)NC(=O)COc1cccc(F)c1)C(=O)CSCc1ccco1 [37 (No. 86), (s)-3-[(s)-2-(3-fluorophenoxyacetylamino)-4-methylvalerylamino]-1-furfurylthio-2-heptanone]	15	1.3	0.7	0.45	
CCCC[C@H](NC(=O)[C@H](CC(C)C)NC(=O)c1cc2ccccc2o1)C(=O)CSCc1ccco1 [91 (No. 180), (s)-3-[(s)-2-(2-benzofuranylcarbonylamino)-4-methylvalerylamino]-1-furfurylthio-2-heptanone]	14	0.16	0.05	0.069	
